These results are taken from patent publication US10159726B2, “Peptides, combination of peptides and scaffolds for use in immunotherapeutic treatment of various cancers” (Immatics Biotechnologies GmbH, priority 2015, dated 2018).

Experiment [1] has as its system HLA-A*24. The experiment can be described thus: MHC binding assay, UV-ligand exchange with beta2m ELISA, HLA-A*24. On the set-up: species or system human. Conditions: binding to HLA-A*24, UV-ligand exchange, β2m ELISA. The text has this: Candidate peptides for T cell based therapies according to the present invention were further tested for their MHC binding capacity (affinity). The individual peptide-MHC complexes were produced by UV-ligand exchange, where a UV-sensitive peptide is cleaved upon UV-irradiation, and exchanged with the peptide of interest as analyzed. Only peptide candidates that can effectively bind and stabilize the peptide-receptive MHC molecules prevent dissociation of the MHC complexes. To determine the yield of the exchange reaction, an ELISA was performed based on the detection of the light chain (β2m) of stabilized MHC complexes. The assay was performed as generally described in Rodenko et al. (Rodenko et al., 2006).
96 well MAXISorp plates (NUNC) were coated over night with 2 ug/ml streptavidin in PBS at room temperature, washed 4× and blocked for 1 h at 37° C. in 2% BSA containing blocking buffer. […] Peptide-MHC monomers of the UV-exchange reaction were diluted 100 fold in blocking buffer. Samples were incubated for 1 h at 37° C., washed four times, incubated with 2 ug/ml HRP conjugated anti-β2m for 1 h at 37° C., washed again and detected with TMB solution that is stopped with […]. Absorption was measured at 450 nm. Candidate peptides that show a high exchange yield (preferably higher than 50%, most preferred higher than 75%) are generally preferred for a generation and production of antibodies or fragments thereof, and/or T cell receptors or fragments thereof, as they show sufficient avidity to the MHC molecules and prevent dissociation of the MHC complexes.

Experiment [2] concerns CD8+ T cells of healthy HLA-A*24+ donor. Nature of the experiment: In vitro T-cell priming (immunogenicity) with aAPCs loaded with HLA-A*24 peptide/MHC and anti-CD28, multimer readout. The experiment is classed as cell-based, human. Particulars: for in vitro immunogenicity, Wells positive [%]: HLA-A*24 peptides, in vitro priming, multimer readout; for peptide-specific in vitro CD8+ T cell response, 2D multimer staining: healthy HLA-A*24+ donor, three cycles of stimulation, FIG. 5, frequencies only in the figure. On the procedure:
In order to obtain information regarding the immunogenicity of the TUMAPs of the present invention, the inventors performed investigations using an in vitro T-cell priming assay based on repeated stimulations of CD8+ T cells with artificial antigen presenting cells (aAPCs) loaded with peptide/MHC complexes and anti-CD28 antibody.
PBMCs and isolated CD8+ lymphocytes were incubated in T-cell medium (TCM) until use consisting of RPMI-Glutamax (Invitrogen, Karlsruhe, Germany) supplemented with 10% heat inactivated human AB serum (PAN-Biotech, Aidenbach, Germany), 100 U/ml Penicillin/100 μg/ml Streptomycin (Cambrex, Cologne, Germany), 1 mM sodium pyruvate (CC Pro, Oberdorla, Germany), 20 μg/ml Gentamycin (Cambrex). 2.5 ng/ml IL-7 (PromoCell, Heidelberg, Germany) and 10 U/ml IL-2 (Novartis Pharma, Nürnberg, Germany) were also added to the TCM at this step.
Generation of pMHC/anti-CD28 coated beads, T-cell stimulations and readout was performed in a highly defined in vitro system using four different pMHC molecules per stimulation condition and 8 different pMHC molecules per readout condition.
The purified co-stimulatory mouse IgG2a anti human CD28 Ab 9.3 (Jung et al., 1987) was chemically biotinylated using Sulfo-N-hydroxysuccinimidobiotin as recommended by the manufacturer (Perbio, Bonn, Germany). Beads used were 5.6 μm diameter streptavidin coated polystyrene particles (Bangs Laboratories, Illinois, USA).
800.000 beads/200 μl were coated in 96-well plates in the presence of 4×12.5 ng different biotin-pMHC, washed and 600 ng biotin anti-CD28 were added subsequently in a volume of 200 μl. Stimulations were initiated in 96-well plates by co-incubating […] CD8+ T cells with 2×10^5 washed coated beads in 200 μl TCM supplemented with 5 ng/ml IL-12 (PromoCell) for 3 days at 37° C. Half of the medium was then exchanged by fresh TCM supplemented with 80 U/ml IL-2 and incubating was continued for 4 days at 37° C. This stimulation cycle was performed for a total of three times. For the pMHC multimer readout using 8 different pMHC molecules per condition, a two-dimensional combinatorial coding approach was used as previously described (Andersen et al., 2012) with minor modifications encompassing coupling to 5 different fluorochromes. Finally, multimeric analyses were performed by staining the cells with Live/dead near IR dye (Invitrogen, Karlsruhe, Germany), CD8-FITC antibody clone SK1 (BD, Heidelberg, Germany) and fluorescent pMHC multimers. For analysis, a BD LSRII SORP cytometer equipped with appropriate lasers and filters was used. Peptide specific cells were calculated as percentage of total CD8+ cells. Evaluation of multimeric analysis was done using the FlowJo software (Tree Star, Oregon, USA). In vitro priming of specific multimer+ CD8+ lymphocytes was detected by comparing to negative control stimulations.
Exemplary flow cytometry results after TUMAP-specific multimer staining for 2 peptides of the invention are shown in FIG. 3 together with corresponding negative controls. Exemplary flow cytometry results after TUMAP-specific multimer staining for 7 peptides of the invention are shown in FIGS. 4 and 5 together with corresponding negative controls.

On to “96 (YYTQYSQTI; listed as Homo sapiens) [compound 96]”, for which the “Peptide exchange (MHC class I binding score, peptide exchange yield)” value (“Peptide exchange” for short) in experiment [1] is reported as “++++ (>=75% = ++++)”. In addition, the “in vitro immunogenicity, Wells positive [%]” value (“in vitro immunogenicity … [%]” for short) in experiment [2] is given as “+ (<20% = +)”. On to “98 (VFPRLHNVLF; listed as Homo sapiens) [compound 98]”, for which, in experiment [2], the “in vitro immunogenicity … [%]” value was “+ (<20% = +)”.

Consider “103 (NYIPVKNGKQF; listed as Homo sapiens) [compound 103]”, for which, in experiment [2], the “in vitro immunogenicity … [%]” value was “+ (<20% = +)”. “104 (SYLTWHQQI; listed as Homo sapiens) [compound 104]”: the “Peptide exchange” value in experiment [1] is “++++ (>=75% = ++++)”. Further, in experiment [2], the “in vitro immunogenicity … [%]” value is given as “+ (<20% = +)”. With “105 (IYNETITDLL; listed as Homo sapiens) [compound 105]”, the “in vitro immunogenicity … [%]” value in experiment [2] was “+ (<20% = +)”.

In the case of “106 (IYNETVRDLL; listed as Homo sapiens) [compound 106]”, the “in vitro immunogenicity … [%]” value in experiment [2] is listed as “+ (<20% = +)”. Same read-out and setting: as for “111 (VYVQILQKL; listed as Homo sapiens) [compound 111]”, the entry is “+ (<20% = +)”. Regarding “115 (RYLNKSFVL; listed as Homo sapiens) [compound 115]”, the “in vitro immunogenicity … [%]” value in experiment [2] is recorded as “+ (<20% = +)”. As to “132 (RYPALFPVL; listed as Homo sapiens) [compound 132]”, in experiment [1], the “Peptide exchange” value is “++++ (>=75% = ++++)”. Besides, in experiment [2], the “in vitro immunogenicity … [%]” value is reported as “+ (<20% = +)”. For “137 (EYLHNCSYF; listed as Homo sapiens) [compound 137]”, in experiment [1], the “Peptide exchange” value was “++++ (>=75% = ++++)”. Besides, the “in vitro immunogenicity … [%]” value in experiment [2] is on record as “+ (<20% = +)”. As to “142 (VYVDDIYVI; listed as Homo sapiens) [compound 142]”, the “in vitro immunogenicity … [%]” value in experiment [2] is “++++ (>=70% = ++++)”. For the substance “156 (YYMELTKLLL; listed as Homo sapiens) [compound 156]”, the “Peptide exchange” value in experiment [1] is on record as “++++ (>=75% = ++++)”. Moreover, the “in vitro immunogenicity … [%]” value in experiment [2] is listed as “+ (<20% = +)”. For “157 (DYIPASGFALF; listed as Homo sapiens) [compound 157]”, the “in vitro immunogenicity … [%]” value in experiment [2] is on record as “+ (<20% = +)”. Still for that read-out and setting: the result for “158 (IYEETRGVLKVF; listed as Homo sapiens) [compound 158]” reads “+ (<20% = +)”. For “160 (RYGDGGSSF; listed as Homo sapiens) [compound 160]”, in experiment [2], the “in vitro immunogenicity … [%]” value is “+ (<20% = +)”.

Regarding “161 (KYPDIVQQF; listed as Homo sapiens) [compound 161]”, in experiment [2], the “in vitro immunogenicity … [%]” value is reported as “+ (<20% = +)”. Same read-out and setting: as for “162 (KYTSYILAF; listed as Homo sapiens) [compound 162]”, the entry is “+ (<20% = +)”. For the substance “163 (RYLTISNLQF; listed as Homo sapiens) [compound 163]”, in experiment [1], the “Peptide exchange” value is reported as “++++ (>=75% = ++++)”. Further, the “in vitro immunogenicity … [%]” value in experiment [2] is on record as “+ (<20% = +)”. For “164 (HYVPATKVF; listed as Homo sapiens) [compound 164]”, the “in vitro immunogenicity … [%]” value in experiment [2] is recorded as “+ (<20% = +)”. In the case of “166 (FYTLPFHLI; listed as Homo sapiens) [compound 166]”, the “Peptide exchange” value in experiment [1] was “++++ (>=75% = ++++)”. Also, the “in vitro immunogenicity … [%]” value in experiment [2] is reported as “++++ (>=70% = ++++)”.

As for “167 (RYGFYYVEF; listed as Homo sapiens) [compound 167]”, the “in vitro immunogenicity … [%]” value in experiment [2] was “++++ (>=70% = ++++)”.

Consider “172 (VFIFKGNEF; listed as Homo sapiens) [compound 172]”, for which the “Peptide exchange” value in experiment [1] is “++++ (>=75% = ++++)”. Moreover, the “in vitro immunogenicity … [%]” value in experiment [2] was “+ (<20% = +)”.

Consider “174 (VYEKNGYIYF; listed as Homo sapiens) [compound 174]”, for which, in experiment [2], the “in vitro immunogenicity … [%]” value is “++++ (>=70% = ++++)”. The same measure, in the same setting: the result for “175 (LYSPVPFTL; listed as Homo sapiens) [compound 175]” reads “+ (<20% = +)”; that for “177 (VYFKAGLDVF; listed as Homo sapiens) [compound 177]”, “+ (<20% = +)”. The same measure, in the same setting: the result for “180 (KYLQVVGMF; listed as Homo sapiens) [compound 180]” reads “+ (<20% = +)”; that for “181 (VYPPYLNYL; listed as Homo sapiens) [compound 181]”, “++++ (>=70% = ++++)”. In the case of “186 (VFTTSSNIF; listed as Homo sapiens) [compound 186]”, the “Peptide exchange” value in experiment [1] was “++++ (>=75% = ++++)”. Besides, the “in vitro immunogenicity … [%]” value in experiment [2] is on record as “+ (<20% = +)”.

Turning to “190 (LYSELTETL; listed as Homo sapiens) [compound 190]”, in experiment [2], the “in vitro immunogenicity … [%]” value is reported as “++++ (>=70% = ++++)”. As for “344 (EYNSDLHQF; listed as Homo sapiens) [compound 344]”, the “in vitro immunogenicity … [%]” value in experiment [2] was “+ (<20% = +)”.

On to “353 (TYGKIDLGF; listed as Homo sapiens) [compound 353]”, for which the “in vitro immunogenicity … [%]” value in experiment [2] was “+ (<20% = +)”.

In the case of “354 (VYNEQIRDLL; listed as Homo sapiens) [compound 354]”, the “in vitro immunogenicity … [%]” value in experiment [2] is given as “+ (<20% = +)”.

For “356 (NYMPGQLTI; listed as Homo sapiens) [compound 356]”, the “Peptide exchange” value in experiment [1] is given as “++++ (>=75% = ++++)”. For the same substance, in experiment [2], the “in vitro immunogenicity … [%]” value was “+ (<20% = +)”. For the substance “358 (YYSEVPVKL; listed as Homo sapiens) [compound 358]”, the “in vitro immunogenicity … [%]” value in experiment [2] is recorded as “++++ (>=70% = ++++)”.

“359 (NYGVLHVTF; listed as Homo sapiens) [compound 359]”: the “Peptide exchange” value in experiment [1] was “++++ (>=75% = ++++)”. Further, the “in vitro immunogenicity … [%]” value in experiment [2] is given as “+ (<20% = +)”.

“363 (SYAELGTTI; listed as Homo sapiens) [compound 363]”: the “in vitro immunogenicity … [%]” value in experiment [2] is “+ (<20% = +)”.

In the case of “QYILAVPVL (listed as Homo sapiens) [SEQ ID NO: 99]”, the “peptide-specific in vitro CD8+ T cell response, 2D multimer staining” value (“peptide-specific” below) in experiment [2] is recorded as “peptide-specific in vitro CD8+ T cell responses”. For the substance “VYEKNGYIYF (listed as Homo sapiens) [SEQ ID NO: 174]”, the “peptide-specific” value in experiment [2] is “peptide-specific in vitro CD8+ T cell responses”. As for “VYRVYVTTF (listed as Homo sapiens) [SEQ ID NO: 119]”, in experiment [2], the “peptide-specific” value is listed as “peptide-specific in vitro CD8+ T cell responses”.

In the case of “VYVDDIYVI (listed as Homo sapiens) [SEQ ID NO: 142]”, the “peptide-specific” value in experiment [2] is recorded as “peptide-specific in vitro CD8+ T cell responses”.
